Experimental data taken from PubChem BioAssay (NCI).
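Exposure lasted 48 hours, with cells grown in 96-well plates and compounds tested at five concentrations. TGI: total growth inhibition.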

Tests used:
Assay in all cases: DTP human tumour cell line panel, 48 h
NCI-H23 lung = tested on: NCI-H23 lung
MDA-MB-231 breast = tested on: MDA-MB-231 breast
HS 578T breast = tested on: HS 578T breast
MOLT-4 leukemia = tested on: MOLT-4 leukemia
A498 renal = tested on: A498 renal
MDA-N = tested on: MDA-N
OVCAR-3 ovarian = tested on: OVCAR-3 ovarian
UACC-62 melanoma = tested on: UACC-62 melanoma
OVCAR-8 ovarian = tested on: OVCAR-8 ovarian
HOP-92 NSCLC = tested on: HOP-92 NSCLC
TK-10 renal = tested on: TK-10 renal
SN12C renal = tested on: SN12C renal
SNB-19 CNS = tested on: SNB-19 CNS
CAKI-1 renal = tested on: CAKI-1 renal
SK-MEL-5 melanoma = tested on: SK-MEL-5 melanoma
PC-3 prostate = tested on: PC-3 prostate
MALME-3M melanoma = tested on: MALME-3M melanoma
HCC-2998 colon = tested on: HCC-2998 colon

SMILES	TGI (NCI-H23 lung) [µM]	TGI (MDA-MB-231 breast) [µM]	TGI (HS 578T breast) [µM]	TGI (MOLT-4 leukemia) [µM]	TGI (A498 renal) [µM]	TGI (MDA-N) [µM]	TGI (OVCAR-3 ovarian) [µM]	TGI (UACC-62 melanoma) [µM]	TGI (OVCAR-8 ovarian) [µM]	TGI (HOP-92 NSCLC) [µM]	TGI (TK-10 renal) [µM]	TGI (SN12C renal) [µM]	TGI (SNB-19 CNS) [µM]	TGI (CAKI-1 renal) [µM]	TGI (SK-MEL-5 melanoma) [µM]	TGI (PC-3 prostate) [µM]	TGI (MALME-3M melanoma) [µM]	TGI (HCC-2998 colon) [µM]
O=c1[nH]c(-c2ccccc2)nc2c1sc1nc3ccccc3n12	> 100	> 100	82.5	> 100	> 100	> 100	> 100	> 100	> 100	> 100	> 100	> 100	> 100	> 100	> 100	> 100	> 100	> 100
CC(C)(C)OC(=O)N/N=C(/N)Cc1ccccc1	> 100	> 100	> 100	> 100	> 100	> 100	> 100	> 100	> 100	> 100	> 100	> 100	> 100	> 100	> 100	> 100	> 100	> 100
CCOC(=O)/C=C(\C(=O)OCC)n1ccc(=O)n(CC(=O)OCC)c1=O	28.1	17.2	53.7	4.62	31.7	17	12.5	19.2	14.3	3.06	6.04	9.38	36.7	1.68	25.8	11.2	5.41	32.2
COc1cc(/C=C2\C(=O)N(Cc3ccccc3)C(c3ccccc3)S2(=O)=O)cc(OC)c1OC (stereo unspecified)	> 100	> 100	> 100	14.7	> 100	> 100	> 100	> 100	> 100	> 100	> 100	> 100	> 100	> 100	51.8	> 100	> 100	> 100
CC1=N[C@](C)(C2CC3C=CC2C3=O)COC1=O (stereo partly specified)	> 100	> 100	> 100	> 100	> 100	> 100	> 100	> 100	> 100	> 100	> 100	> 100	> 100	> 100	> 100	> 100	> 100	> 100
O=C1C(=C(I)I)c2ccccc2-c2ccccc21	16.3	4.31	19.6	6.48	30.6	4.6	3.82	10.7	7.72	5.66	3.86	4.31	27.5	7.12	19.7	13.5	4.08	7.54
Cn1cnc(N2CCCC2)c(C#N)c1=O	> 100	> 100	> 100	> 100	> 100	> 100	> 100	> 100	> 100	> 100	> 100	> 100	> 100	> 100	> 100	> 100	> 100	> 100
